According to US8227422B2, “Peptides and compounds that bind to a receptor” (Glaxosmithkline LLC, priority 1996, dated 2012):
Read-outs that look alike come from different tables or passages of the source. Where a SMILES comes first, the peptide text is derived from it.

Assays:
[1] = target: T1, TPO-R (Homo sapiens, UniProt P40238); experiment: Competition binding assay (equilibrium binding ELISA, MBP-TPO156 tracer) on immobilized TPO-R; details: read-out: IC50
T1 construct: made in house
T1 sequence (P40238 26-491 limits assumed): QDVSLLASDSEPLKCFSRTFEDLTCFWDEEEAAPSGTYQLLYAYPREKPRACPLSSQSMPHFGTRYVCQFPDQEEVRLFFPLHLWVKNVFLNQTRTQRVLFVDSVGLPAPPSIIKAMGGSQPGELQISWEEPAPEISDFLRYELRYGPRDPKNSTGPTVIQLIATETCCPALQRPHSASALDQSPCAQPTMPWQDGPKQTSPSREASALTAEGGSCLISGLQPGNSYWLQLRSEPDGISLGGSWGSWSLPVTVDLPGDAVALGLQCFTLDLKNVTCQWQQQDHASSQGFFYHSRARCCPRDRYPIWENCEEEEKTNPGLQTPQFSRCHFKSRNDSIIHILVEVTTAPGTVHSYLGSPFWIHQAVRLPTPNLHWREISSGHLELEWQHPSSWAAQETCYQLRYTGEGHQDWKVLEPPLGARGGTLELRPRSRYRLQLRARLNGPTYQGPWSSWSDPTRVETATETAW
Protocol: A variety of methods can be used to evaluate IC50 values. For example, an equilibrium binding ELISA assay, using either MBP-TPO or lacI-peptide tracer, was used to determine whether the peptides inhibit the binding of TPO to the extracellular domain of the TPO receptor. Typically, the IC50 value were determined using the free peptide. The IC50 value can be determined using the free peptide, which optionally can be C-terminally amidated, or can be prepared as an ester or other carboxy amide.
Binding affinities of chemically synthesized peptides for TPO-R were measured in a competition binding assay. The wells of a microtiter plate were coated with 1 mg streptavidin, blocked with PBS/1% BSA, followed by 50 ng of biotinylated anti-receptor immobilizing antibody (Ab179). The wells were then treated with a 1:10 dilution of soluble TPO-R harvest. Various concentrations of peptide or peptide mimetic were mixed with a constant amount of a truncated form of TPO consisting of residues 1-156 fused to the C-terminus of maltose binding protein (MBP-TPO156). The peptide MBP-TPO156 mixtures were added to the TPO-R coated wells, incubated for 2 hours at 4° C. and then washed with PBS. The amount of MBP-TPO156 that was bound at equilibrium was measured by adding a rabbit anti-sera directed against MBP, followed by alkaline phosphatase conjugated goat anti-rabbit IgG. The amount of alkaline phosphatase in each well was then determined using standard methods.
The assay is conducted over a range of peptide concentrations and the results are graphed such that the y axis represents the amount of bound MBP-TPO156 and the x axis represents the concentration of peptide or peptide mimetic.

[2] = target: T2, TPO receptor (Homo sapiens, UniProt P40238); experiment: Microphysiometer assay: rate of acidification of extracellular medium on TPO receptor stimulation; format: cell-based
T2 sequence (P40238 26-635): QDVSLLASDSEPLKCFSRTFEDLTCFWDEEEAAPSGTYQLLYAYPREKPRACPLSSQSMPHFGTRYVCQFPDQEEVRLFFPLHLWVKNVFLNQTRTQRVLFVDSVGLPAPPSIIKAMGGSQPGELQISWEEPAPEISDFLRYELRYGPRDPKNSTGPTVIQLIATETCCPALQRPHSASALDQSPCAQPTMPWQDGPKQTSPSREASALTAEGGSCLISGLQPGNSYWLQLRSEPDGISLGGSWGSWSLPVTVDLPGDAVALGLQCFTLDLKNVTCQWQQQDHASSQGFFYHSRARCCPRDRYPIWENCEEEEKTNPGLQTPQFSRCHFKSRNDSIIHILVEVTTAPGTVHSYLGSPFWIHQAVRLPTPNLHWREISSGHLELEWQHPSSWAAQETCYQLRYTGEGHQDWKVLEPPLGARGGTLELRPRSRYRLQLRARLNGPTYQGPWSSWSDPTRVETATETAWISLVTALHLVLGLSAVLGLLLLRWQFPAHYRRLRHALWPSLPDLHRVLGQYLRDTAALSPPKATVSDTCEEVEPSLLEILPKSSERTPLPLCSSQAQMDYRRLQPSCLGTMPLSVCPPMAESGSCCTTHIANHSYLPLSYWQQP
Protocol: In this example cyclized compounds were subjected to three assays. […] Finally, a microphysiometer (Molecular Devices Corp.) assay was performed. […] The ranges for EC50 are symbolically indicated as for IC50 described above.

[3] = target: T3, human TPO-R (transfected Ba/F3 cells) (Homo sapiens, UniProt P40238); experiment: Thrombopoietin dependent cell proliferation assay (MTT), TPO-R transfected Ba/F3 cells; format: cell-based
T3 construct: Murine IL-3 dependent Ba/F3 cells were transfected with full length human TPO-R; expressed in transfected cells; host or cells: murine Ba/F3 cells
T3 sequence (P40238 26-635): T2 sequence (P40238 26-635)
Protocol: Bioactivity of the peptides can be measured using a thrombopoietin dependent cell proliferation assay. Murine IL-3 dependent Ba/F3 cells were transfected with full length human TPO-R. In the absence of IL-3 (WEHI-3 conditioned media), these cells are dependent on TPO for proliferation.
The cells were grown in complete RPMI-10 media, containing 10% WEHI-3 conditioned media, then washed twice in PBS, resuspended in media which lacked WEHI-3 conditioned media, and added to wells containing dilutions of peptide or TPO at 2×10^4 cells/well. The cells were incubated for 48 hours at 37° C. in a humidified 5% CO2 atmosphere and metabolic activity was assayed by the reduction of MTT to formazan, with absorbance at 570 nm measured on an ELISA plate reader.

[4] = Table 7, dimer compounds, read-out: EC50 (nM) Microonys.
[5] = Table 4, cyclized compounds, read-out: EC50 (nM) Proliferation
[6] = Table 4, cyclized compounds, microphysiometer, read-out: EC50 (nM) Microonys

IC50 ([1]; Table 7, dimer compounds)	EC50 [2, 4]	IC50 ([1]; Table 4, cyclized compounds)	EC50 [3, 5]	EC50 [2, 6]	Structure (SMILES)	further results
≤ 0.5 µM	< 500 nM				CC(C)C[C@H](NC(=O)[C@H](Cc1c[nH]c2ccccc12)NC(=O)[C@H](CCC(N)=O)NC(=O)[C@H](CCCNC(=N)N)NC(=O)[C@H](CC(C)C)NC(=O)[C@@H](NC(=O)[C@@H]1CCCN1C(=O)CNC(=O)[C@H](CCC(=O)O)NC(=O)[C@@H](N)CCCCN)[C@@H](C)O)C(=O)N[C@@H](C)C(=O)N[C@@H](C)C(=O)N[C@@H](CCCNC(=N)N)C(=O)N[C@@H](C)C(=O)NCCCC[C@H](NC(=O)CCNC(=O)[C@H](C)NC(=O)[C@H](CCCNC(=N)N)NC(=O)[C@H](C)NC(=O)[C@H](C)NC(=O)[C@H](CC(C)C)NC(=O)[C@H](Cc1c[nH]c2ccccc12)NC(=O)[C@H](CCC(N)=O)NC(=O)[C@H](CCCNC(=N)N)NC(=O)[C@H](CC(C)C)NC(=O)[C@@H](NC(=O)[C@@H]1CCCN1C(=O)CNC(=O)[C@H](CCC(=O)O)NC(=O)[C@@H](N)CCCCN)[C@@H](C)O)C(N)=O	
		≤ 0.5 µM	< 500 nM	< 200000 nM	CC[C@H](C)[C@@H]1NC(=O)[C@H](Cc2c[nH]c3ccccc23)NC(=O)[C@H](CCC(=O)O)NC(=O)[C@H](CCCNC(=N)N)NC(=O)[C@H](CC(C)C)NC(=O)[C@H]([C@@H](C)O)NC(=O)[C@@H]2CCCN2C(=O)CNC(=O)[C@H](CC(=O)O)NC(=O)[C@H](C)NC(=O)C(c2ccccc2)SC[C@@H](C(N)=O)NC(=O)[C@H](Cc2ccccc2)NC(=O)[C@H](CO)NC1=O (stereo partly drawn) (HELM PEPTIDE1{A.D.G.P.T.L.R.E.W.I.S.F.C.[am]}|CHEM1{[O=C(C(c1ccccc1)[*:2])[*:1]]}$PEPTIDE1,CHEM1,1:R1-1:R1|PEPTIDE1,CHEM1,13:R3-1:R2$$$V2.0)	
		≤ 200 µM	< 200000 nM	< 200000 nM	CC[C@H](C)[C@@H]1NC(=O)[C@H](Cc2c[nH]c3ccccc23)NC(=O)[C@H](CCC(=O)O)NC(=O)[C@H](CCCNC(=N)N)NC(=O)[C@H](CC(C)C)NC(=O)[C@H]([C@@H](C)O)NC(=O)[C@@H]2CCCN2C(=O)CNC(=O)[C@H](CC(=O)O)NC(=O)[C@H](C)NC(=O)CC[C@@H](C(N)=O)NC(=O)[C@H](Cc2ccccc2)NC(=O)[C@H](CO)NC1=O (HELM PEPTIDE1{A.D.G.P.T.L.R.E.W.I.S.F.E.[am]}$PEPTIDE1,PEPTIDE1,1:R1-13:R3$$$V2.0)	
		≤ 200 µM	< 200000 nM	< 200000 nM	CC[C@H](C)[C@@H]1NC(=O)[C@H](Cc2c[nH]c3ccccc23)NC(=O)[C@H](CCC(=O)O)NC(=O)[C@H](CCCNC(=N)N)NC(=O)[C@H](CC(C)C)NC(=O)[C@H]([C@@H](C)O)NC(=O)[C@@H]2CCCN2C(=O)CNC(=O)[C@H](CC(=O)O)NC(=O)[C@H](C)NC(=O)C[S+]([O-])C[C@@H](C(N)=O)NC(=O)[C@H](Cc2ccccc2)NC(=O)[C@H](CO)NC1=O (stereo partly drawn) (HELM PEPTIDE1{A.D.G.P.T.L.R.E.W.I.S.F.[O=C([C@H](C[S+]([O-])CC(=O)[*:3])N[*:1])[*:2]].[am]}$PEPTIDE1,PEPTIDE1,1:R1-13:R3$$$V2.0)	
≤ 0.5 µM	< 500 nM				CC[C@H](C)[C@H](NC(=O)[C@H](Cc1c[nH]c2ccccc12)NC(=O)[C@H](CCC(=O)O)NC(=O)[C@H](CCCNC(=N)N)NC(=O)[C@H](CC(C)C)NC(=O)[C@@H](NC(=O)[C@@H]1CCCN1C(=O)CNC(=O)[C@H](CC(=O)O)NC(=O)[C@H](C)NC(=O)[C@@H](N)CSSC[C@H](N)C(=O)N[C@@H](C)C(=O)N[C@@H](CC(=O)O)C(=O)NCC(=O)N1CCC[C@H]1C(=O)N[C@H](C(=O)N[C@@H](CC(C)C)C(=O)N[C@@H](CCCNC(=N)N)C(=O)N[C@@H](CCC(=O)O)C(=O)N[C@@H](Cc1c[nH]c2ccccc12)C(=O)N[C@H](C(=O)N[C@@H](CO)C(=O)N[C@@H](Cc1ccccc1)C(N)=O)[C@@H](C)CC)[C@@H](C)O)[C@@H](C)O)C(=O)N[C@@H](CO)C(=O)N[C@@H](Cc1ccccc1)C(N)=O (HELM PEPTIDE1{C.A.D.G.P.T.L.R.E.W.I.S.F.[am]}|PEPTIDE2{C.A.D.G.P.T.L.R.E.W.I.S.F.[am]}$PEPTIDE1,PEPTIDE2,1:R3-1:R3$$$V2.0)	EC50 ([3]; Table 7, dimer compounds, read-out: EC50 (nM) Prolif.): < 500 nM
		≤ 0.5 µM	< 200000 nM	< 200000 nM	CC[C@H](C)[C@@H]1NC(=O)[C@H](Cc2c[nH]c3ccccc23)NC(=O)[C@H](CCC(=O)O)NC(=O)[C@H](CCCNC(=N)N)NC(=O)[C@H](CC(C)C)NC(=O)[C@H]([C@@H](C)O)NC(=O)[C@@H]2CCCN2C(=O)CNC(=O)[C@H](CC(=O)O)NC(=O)[C@H](C)NC(=O)[C@@H](N)CSSC[C@H](C(N)=O)NC(=O)[C@H](Cc2ccccc2)NC(=O)[C@H](CO)NC1=O (HELM PEPTIDE1{C.A.D.G.P.T.L.R.E.W.I.S.F.[dC].[am]}$PEPTIDE1,PEPTIDE1,1:R3-14:R3$$$V2.0)	
≤ 0.5 µM	< 500 nM				CC[C@H](C)[C@H](NC(=O)[C@@H](N)CSSC[C@H](N)C(=O)N[C@H](C(=O)N[C@@H](CCC(=O)O)C(=O)NCC(=O)N1CCC[C@H]1C(=O)N[C@H](C(=O)N[C@@H](CC(C)C)C(=O)N[C@@H](CCCNC(=N)N)C(=O)N[C@@H](CCC(N)=O)C(=O)N[C@@H](Cc1c[nH]c2ccccc12)C(=O)N[C@@H](CC(C)C)C(=O)N[C@@H](C)C(=O)N[C@@H](C)C(=O)N[C@@H](CCCNC(=N)N)C(=O)N[C@@H](C)C(N)=O)[C@@H](C)O)[C@@H](C)CC)C(=O)N[C@@H](CCC(=O)O)C(=O)NCC(=O)N1CCC[C@H]1C(=O)N[C@H](C(=O)N[C@@H](CC(C)C)C(=O)N[C@@H](CCCNC(=N)N)C(=O)N[C@@H](CCC(N)=O)C(=O)N[C@@H](Cc1c[nH]c2ccccc12)C(=O)N[C@@H](CC(C)C)C(=O)N[C@@H](C)C(=O)N[C@@H](C)C(=O)N[C@@H](CCCNC(=N)N)C(=O)N[C@@H](C)C(N)=O)[C@@H](C)O (HELM PEPTIDE1{C.I.E.G.P.T.L.R.Q.W.L.A.A.R.A.[am]}|PEPTIDE2{C.I.E.G.P.T.L.R.Q.W.L.A.A.R.A.[am]}$PEPTIDE1,PEPTIDE2,1:R3-1:R3$$$V2.0)	
		≤ 0.5 µM	< 200000 nM	< 200000 nM	CC[C@H](C)[C@@H]1NC(=O)[C@H](Cc2c[nH]c3ccccc23)NC(=O)[C@H](CCC(=O)O)NC(=O)[C@H](CCCNC(=N)N)NC(=O)[C@H](CC(C)C)NC(=O)[C@H]([C@@H](C)O)NC(=O)[C@@H]2CCCN2C(=O)CNC(=O)[C@H](CC(=O)O)NC(=O)[C@H](C)NC(=O)[C@H](N)C(C)(C)SSC[C@H](C(N)=O)NC(=O)[C@H](Cc2ccccc2)NC(=O)[C@H](CO)NC1=O (HELM PEPTIDE1{[CC(C)(S[*:3])[C@@H](N)C(=O)[*:2]].A.D.G.P.T.L.R.E.W.I.S.F.[dC].[am]}$PEPTIDE1,PEPTIDE1,1:R3-14:R3$$$V2.0)	
					CC[C@H](C)[C@@H]1NC(=O)[C@H](Cc2c[nH]c3ccccc23)NC(=O)[C@H](CCC(=O)O)NC(=O)[C@H](CCCNC(=N)N)NC(=O)[C@H](CC(C)C)NC(=O)[C@H]([C@@H](C)O)NC(=O)[C@@H]2CCCN2C(=O)[C@@H](N)CSSC[C@@H](C(N)=O)NC(=O)[C@H](Cc2ccccc2)NC(=O)[C@H](CO)NC1=O [ADG-deletion] (HELM PEPTIDE1{C.P.T.L.R.E.W.I.S.F.C.[am]}$PEPTIDE1,PEPTIDE1,1:R3-11:R3$$$V2.0; N-terminus and C-terminus assumed)	IC50 ([1]; Table 5): ≤ 200 µM; EC50 ([2]; Table 5, value in parentheses, read-out: EC50 (nM), microphysiometer results given in parentheses): < 200000 nM
